Measurements from patent US20250195599A1, “ANTI-DIABETIC STEROIDAL LACTONES OF WITHANIA COAGULANS FOR TREATMENT OF TYPE 2 DIABETES” (Khalifa University of Science and Technology, priority 2022, published 2025).

Key:
MyoD = test: MyoD1 immunofluorescence staining in D-HSMM; format: cell-based, human; conditions: for MyoD positive cells: optimum concentration, vs. D-HSMM control (non-treated cells)
Description: The supernatant was removed, cells were washed with warm PBS (37° C.), fixed, and permeabilized with 100 μl phosphate-buffered saline (PBS) containing 4% paraformaldehyde and 0.1% Triton X-100 at room temperature for 10 mins. Next, cells were blocked with 1% BSA (100 μl) in PBS at room temperature for 1 hour. The cells were then incubated with 50 μl of primary anti-MyoD1 antibody (Cat no: ab16148, Abcam, USA), diluted 1:100 in a block solution, overnight at 4° C. Cells were washed in PBS three times, incubated with 50 μl Goat anti-Mouse IgG (H+L) secondary antibody (Cross adsorbed, Alexa Fluor 594, Cat no: R37121, Thermo Fisher Scientific, USA) at room temperature for 30 min. Nuclei were counterstained with 1 μg/ml Hoechst 33342 solution (Cat no: 62249, Thermo Fisher Scientific, USA) in PBS (100 μl/well). For each treatment, cells were examined under EVOS F1 Microscope (Cat no: AMF4300, Life Technologies, USA) and photographed. Approximately 10-12 digital photographs were taken of each treatment for subsequent offline analysis. The total number of immune-positive and immuno-negative cells were counted using Image J (NIH, USA) software. […] Data were presented as a percentage of control (untreated cells).

myogenin = test: Myogenin immunofluorescence staining in D-HSMM; format: cell-based, human; conditions: 48 h, optimum concentration, vs. D-HSMM control (untreated cells), FIG. 3A
Description: The supernatant was removed, cells were washed with warm PBS (37° C.), fixed with 100 μl PBS containing 4% paraformaldehyde at room temperature for 10 mins. Cells were permeabilized with 100 μl of 0.25% Triton X-100 on PBS for 10 mins at 25° C. The cells were then blocked with 100 μl of 10% normal goat serum (NGS), incubated with 50 μl of primary anti-myogenin antibody (Cat no: MAB3876, Merck Millipore, USA) diluted 1:500 in block solution overnight at 4° C. Cells were washed in PBS (200 μl) three times, incubated with 50 μl Goat anti-Mouse IgG (H+L) secondary antibody (Cross adsorbed, Alexa Fluor 594, Cat no: R37121, Thermo Fisher Scientific, USA) at room temperature for 30 min. Nuclei were counterstained with 1 μg/ml Hoechst 33342 solution (Cat no: 62249, Thermo Fisher Scientific, USA) in PBS (100 μl/well). For each treatment, cells were examined under EVOS F1 Microscope (Cat no: AMF4300, Life Technologies, USA) and photographed. Approximately 10-12 digital photographs were taken of each treatment for subsequent offline analysis. The total number of immune-positive and immuno-negative cells were counted using Image J (NIH, USA) software. […] Data were presented as a percentage of control (untreated cells).

GLUT4 = test: Total GLUT4 immunofluorescence in D-HSMM myotubes; format: cell-based, human; conditions: FIG. 6B; for expression of GLUT-4: treated 24 h on day 8, 100 nM insulin challenge, vs. D-HSMM control (untreated cell)
Description: Measurement of Total GLUT4: Approximately 2×10^3 cells were seeded in a 96 well clear bottom black poly D lysine (5 μg/cm^2) coated plate and allow to grow with a media change after every 48 h. […] The supernatant was removed and challenged for 5 mins with 100 nM insulin. Next, cells were washed with warm PBS (37° C.), fixed with phosphate-buffered saline (PBS) containing 4% paraformaldehyde at room temperature for 10 mins. Cells were permeabilized with 0.5% Triton X-100 on PBS for 10 mins at 25° C. The cells were then blocked with 100 μl of 10% NGS in PBS at room temperature for 2 hours. The cells were then incubated with 50 μl GLUT4 antibody (Cat no: NBP1-49533, Novus Biological, USA) diluted 1:100 in block solution overnight at 4° C. Cells were washed in PBS three times (200 μl), incubated with 50 μl Goat anti-Rabbit IgG (H+L) (Cross adsorbed, Alexa Fluor 488, Cat no: R37116, Thermo Fisher Scientific, USA) secondary antibody at room temperature for 30 min. Total fluorescence was measured m at […] (excitation/emission) by Tecan multimode plate reader (M200, Tecan, Switzerland). Cells without primary antibody were used for blank reduction. The relative GLUT 4 (%) related to control wells containing cells with DMEM:F12 medium was calculated by (RFU) test/(RFU) control×100. Where (RFU) test is the fluorescence of the test sample and (RFU) control is the fluorescence of the control sample.

bovine embryo = conditions: stated as background knowledge; cited from earlier work
GLUT1 = test: Cell-based GLUT1 ELISA in D-HSMM myotubes; set-up: species or system human; conditions: treated 24 h on day 8, FIG. 6A
Description: After 24 hours, GLUT1 was measured by using CytoGlow™ cell-based GLUT 1 ELISA kit (Cat no: MBS95002558, MyBioSource, USA), according to the manufacturer's protocol. Briefly, cells were fixed with phosphate-buffered saline (PBS) containing 4% paraformaldehyde at room temperature for 20 mins. Next, cells were quenched for 20 mins at room temperature. Cells were washed in PBS three times, blocked at room temperature for 1 hour. Cells were washed in PBS three times, incubated with primary GLUTI antibody overnight at 4° C. Cells were washed in PBS three times (200 μl), incubated with HRP-conjugated secondary antibody at room temperature for 1.5 hours. Cells were washed in PBS three times and incubated with a ready-to-use substrate for 30 minutes at room temperature in the dark with gentle shaking on the shaker. The reaction was stopped, and OD was measured at 450 nm immediately using an Emax Plus microplate reader (Molecular devices, CA 94089, USA).

[1] = test system: Diseased Human Skeletal Muscle Myoblasts (D-HSMM) diabetes type II; format: cell-based
Description: Measurement of cellular viability: Cell proliferation was measured by using MTT 3-(4,5-dimethylthiazol-2-yl)-2,5-diphenyltetrazolium bromide (MTT) (Cat no: M2128, Sigma Aldrich, USA). […] After 48 h of incubation, plates were removed from the CO2incubator and washed with 200 μl PBS. Thereafter, 100 μl of MTT solution (0.5 mg/ml in SkGM-2 medium) was added to each well. The contents were placed on a shaker for 5 min and were incubated for 4 hours in a CO2 incubator to allow the MTT to be metabolized. After incubation, the supernatant was removed, and the plate was washed with 300 μl PBS. The plates were inverted and strongly tapped on a paper towel to remove the medium completely. […] For the blank control, wells were set without cells but received all the reagents.

D-HSMM myotubes = test: Insulin-stimulated 2-NBDG glucose uptake in D-HSMM myotubes; format: cell-based, human; conditions: FIG. 7
Description: Insulin-stimulated 2-NBDG uptake: The ability of the test compounds on insulin-stimulated glucose uptake was measured using the Glucose Uptake Cell-Based Assay Kit (Cat no: 600470, Cayman, Michigan, USA) according to the manufacturer's instructions. Briefly, the cells were seeded at a density of 2×10^3 cells/well in a 96 well black, clear-bottom poly D lysine coated plate and allowed to grow with a media change after every 48 hours. […] Subsequently, cells were washed with 300 μl PBS three times and incubated with PBS for 5 mins at 37° C., in a CO2 incubator. Cells were challenged for 20 min with 50 μl of 100 nM insulin and 50 μl of 100 μg/ml fluorescent glucose analog 2-deoxy-2-[(7-nitro-2,1,3-benzoxadiazol-4-yl) amino]-D-glucose (2-NBDG) in Krebs/Ringer buffer (KRB) (118.5 mM NaCl, 25 mM NaHCO3, 4.74 mM KCl, 1.19 mM MgSO4, 2.54 mM CaCl2, 10 mM HEPES, 1.19 mM KH2PO4, 0.1% BSA) (pH 7.4). At the end of the incubation, the plates were centrifuged for 3 mins at 400×g at room temperature, and the supernatant was aspirated. Cells were washed with 200 μl/well cell-based assay buffer and centrifuged for 3 mins at 400×g at room temperature. […] The fluorescence reading of each well was immediately measured (excitation/emission=485 nm/535 nm) by using a Tecan multimode plate reader (Cat no: M200, Tecan, Switzerland). […]

MAFbx/atrogin-1 = test: Atrogin-1/Fbx32 immunofluorescence staining in D-HSMM; format: cell-based, human; conditions: 48 h, optimum concentration, vs. control (non-treated cells), FIG. 4A
Description: The supernatant was removed, cells were washed with warm PBS (37° C.), fixed with phosphate-buffered saline (PBS) containing 4% paraformaldehyde at room temperature for 10 mins. Cells were permeabilized with 0.25% Triton X-100 on PBS for 10 mins at 25° C. The cells were then blocked with 100 μl of 10% NGS in PBS at room temperature for 2 hours. The cells were then incubated with 50 μl primary Anti-Fbx32 antibody (Cat no: NBP2-76836, Novus Biological, USA) diluted 1:100 in block solution overnight at 4° C. Cells were washed in PBS three times (200 μl), incubated with 50 μl Goat anti-Rabbit IgG (H+L) (Cross adsorbed, Alexa Fluor 488, Cat no: R37116, Thermo Fisher Scientific, USA) secondary antibody at room temperature for 30 min. Nuclei were counterstained with 1 μg/ml Hoechst 33342 solution (Cat no: 62249, Thermo Fisher Scientific, USA) in PBS (100 μl/well). For each treatment, cells were examined under EVOS F1 Microscope (Cat no: AMF4300, Life Technologies, USA) and photographed. Approximately 10-12 digital photographs were taken of each treatment for subsequent offline analysis. The total number of immune-positive and immuno-negative cells were counted using Image J (NIH, USA) software. […] Data were presented as a percentage of control (untreated cells).

urease = conditions: stated as background knowledge; cited from earlier work
[2] = test system: Diseased Human Skeletal Muscle Myoblasts (D-HSMM) diabetes type II; test: LDH release cytotoxicity assay; conditions: D-HSMM myoblasts treated 48 h; W. Coagulans and Coagulansin-A 1×10^−15 g/ml; vs. control (non-treated cells); FIG. 2A
Description: Cell line: The Clonetics® Diseased Human Skeletal Muscle Myoblasts (D-HSMM) diabetes type II, (Cat no: CC-2901) sourced from a donor, were purchased from Lonza (Lonza Bioscience, USA).
Cells were cultured in the growth medium, Skeletal Muscle Growth Media-2 (SkGM-2; CC-3244) containing basal medium, Human epidermal growth factor (hEGF), Dexamethasone, L-glutamine, Fetal Bovine Serum (FBS), and Gentamicin/Amphotericin B (GA-1000). Cells were seeded at 6250 cells/cm^2 in T175 flasks and maintained at 37° C. in a humidified incubator (Thermo Scientific, USA) containing 5% carbon dioxide (CO2). After 24 hours, when cells adhered to the bottom of the flask, media was changed every 24-48 hours. […]
The cytotoxicity detection kit (Cat no: 11644793001, Roche, USA) was used to measure lactate dehydrogenase (LDH) release according to the manufacturer's instructions. Briefly, released LDH in culture supernatants was measured with a 30-mins coupled enzymatic assay that results in the reduction of tetrazolium salt, Iodotetrazolium chloride (INT) into a formazan (red). […] Absorbance at 490 nm was measured with an Emax Plus microplate reader (CA 94089, Molecular devices, USA). The reader was calibrated to zero absorbance using a culture medium without cells. The untreated cells served as the control, and results were calculated as the percentage of viability in relation to the control. […]

Row | Compound | MyoD positive cells compared to metformin and pioglitazone (MyoD; D-HSMM myoblasts, 48 h, vs. metformin and pioglitazone treated cells, FIG. 5A) | MyoD positive cells (MyoD; D-HSMM, 48 h, FIG. 5A) | MyoD positive cells, dose optimization (MyoD; D-HSMM, concentration 10^−15 g/ml (of 10^−13, 10^−15, 10^−17 g/ml tested), vs. diabetic control, FIG. 9) | expression of myogenin (myogenin) | expression of GLUT-4 (GLUT4) | expression of GLUT-4 compared to metformin (GLUT4; vs. metformin (as printed in text)) | effects on development of bovine embryo (bovine embryo) | expression of GLUT1 (GLUT1) | MTT metabolic rate, dose optimization [1] | MTT viability [1] | insulin-stimulated glucose uptake (2-NBDG) (D-HSMM myotubes; treated 24 h, vs. control (untreated cells)) | insulin-stimulated glucose uptake compared to positive controls (D-HSMM myotubes; vs. insulin, metformin, and pioglitazone) | expression of atrogin1 (MAFbx/atrogin-1) | antiurease activity (urease) | LDH release [2]
1 | CC1=C(CO)C(=O)O[C@@H]([C@](C)(O)[C@]2(O)CC[C@@]3(O)C4CC=C5CC=CC(=O)[C@]5(C)C4CC[C@]23C)C1 (stereo partly drawn) [Coagulansin-A, (14α, 17S,20S,22R)-14, 17,20,27-tetrahydroxy-1-oxowitha-2,5,24-trienolide)] | Significantly increased MyoD positive cells | enhanced expression | enhanced expression | significantly increased expression | upregulated | significant increase | beneficial effects on development of bovine embryo | remained unaffected | did not affect the metabolic rate | did not affect the viability | significantly enhanced glucose uptake | increased glucose uptake | significantly suppressed expression | antiurease activity | –
2 | COc1ccc(Cl)cc1C(=O)NCCc1ccc(S(=O)(=O)NC(=O)NC2CCCCC2)cc1 [Glibenclamide, reference compound] | – | enhanced expression | – | – | – | – | – | – | – | – | – | – | – | – | –
3 | CN(C)C(=N)N=C(N)N [Metformin] | – | did not show any difference | – | remained unaffected | – | – | – | – | – | – | – | – | significantly suppressed expression | – | –
4 | Insulin | – | enhanced expression | – | significantly increased expression | upregulated | – | – | – | – | – | – | – | significantly suppressed expression | – | significant decrease
